The target in the assay is T1, Nav 1.7 (Homo sapiens, UniProt Q15858).
T1 construct: expressed in transfected cells
Nature of the assay: Whole-cell voltage clamp electrophysiology, automated patch clamp (marker c in Table of Examples). The note with it: read-out: Nav 1.7 activity. In kind it is cell-based. The procedure, abridged: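 A voltage protocol weighted toward inactivated-state block was used to test compounds on stably expressing cells, with pulses from −65 mV holding to −10 mV test and −100 mV. Currents came from whole-cell automated patch-clamp recordings, either IonWorks Quattro or other automated instruments, usually in perforated-patch mode.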
(In general: The patch-clamp technique gives a direct electrical read-out from membranes.)

[1] abbreviates: marker c = Automated patch clamp data.
Setting [2] is: marker c: Automated patch clamp data.

Data on 23 compounds can be found in US8895733B2 (Novartis AG, priority 2010, dated 2014).

Where two headings read alike, the source gives them in different places.

T1 sequence (Q15858 whole entry): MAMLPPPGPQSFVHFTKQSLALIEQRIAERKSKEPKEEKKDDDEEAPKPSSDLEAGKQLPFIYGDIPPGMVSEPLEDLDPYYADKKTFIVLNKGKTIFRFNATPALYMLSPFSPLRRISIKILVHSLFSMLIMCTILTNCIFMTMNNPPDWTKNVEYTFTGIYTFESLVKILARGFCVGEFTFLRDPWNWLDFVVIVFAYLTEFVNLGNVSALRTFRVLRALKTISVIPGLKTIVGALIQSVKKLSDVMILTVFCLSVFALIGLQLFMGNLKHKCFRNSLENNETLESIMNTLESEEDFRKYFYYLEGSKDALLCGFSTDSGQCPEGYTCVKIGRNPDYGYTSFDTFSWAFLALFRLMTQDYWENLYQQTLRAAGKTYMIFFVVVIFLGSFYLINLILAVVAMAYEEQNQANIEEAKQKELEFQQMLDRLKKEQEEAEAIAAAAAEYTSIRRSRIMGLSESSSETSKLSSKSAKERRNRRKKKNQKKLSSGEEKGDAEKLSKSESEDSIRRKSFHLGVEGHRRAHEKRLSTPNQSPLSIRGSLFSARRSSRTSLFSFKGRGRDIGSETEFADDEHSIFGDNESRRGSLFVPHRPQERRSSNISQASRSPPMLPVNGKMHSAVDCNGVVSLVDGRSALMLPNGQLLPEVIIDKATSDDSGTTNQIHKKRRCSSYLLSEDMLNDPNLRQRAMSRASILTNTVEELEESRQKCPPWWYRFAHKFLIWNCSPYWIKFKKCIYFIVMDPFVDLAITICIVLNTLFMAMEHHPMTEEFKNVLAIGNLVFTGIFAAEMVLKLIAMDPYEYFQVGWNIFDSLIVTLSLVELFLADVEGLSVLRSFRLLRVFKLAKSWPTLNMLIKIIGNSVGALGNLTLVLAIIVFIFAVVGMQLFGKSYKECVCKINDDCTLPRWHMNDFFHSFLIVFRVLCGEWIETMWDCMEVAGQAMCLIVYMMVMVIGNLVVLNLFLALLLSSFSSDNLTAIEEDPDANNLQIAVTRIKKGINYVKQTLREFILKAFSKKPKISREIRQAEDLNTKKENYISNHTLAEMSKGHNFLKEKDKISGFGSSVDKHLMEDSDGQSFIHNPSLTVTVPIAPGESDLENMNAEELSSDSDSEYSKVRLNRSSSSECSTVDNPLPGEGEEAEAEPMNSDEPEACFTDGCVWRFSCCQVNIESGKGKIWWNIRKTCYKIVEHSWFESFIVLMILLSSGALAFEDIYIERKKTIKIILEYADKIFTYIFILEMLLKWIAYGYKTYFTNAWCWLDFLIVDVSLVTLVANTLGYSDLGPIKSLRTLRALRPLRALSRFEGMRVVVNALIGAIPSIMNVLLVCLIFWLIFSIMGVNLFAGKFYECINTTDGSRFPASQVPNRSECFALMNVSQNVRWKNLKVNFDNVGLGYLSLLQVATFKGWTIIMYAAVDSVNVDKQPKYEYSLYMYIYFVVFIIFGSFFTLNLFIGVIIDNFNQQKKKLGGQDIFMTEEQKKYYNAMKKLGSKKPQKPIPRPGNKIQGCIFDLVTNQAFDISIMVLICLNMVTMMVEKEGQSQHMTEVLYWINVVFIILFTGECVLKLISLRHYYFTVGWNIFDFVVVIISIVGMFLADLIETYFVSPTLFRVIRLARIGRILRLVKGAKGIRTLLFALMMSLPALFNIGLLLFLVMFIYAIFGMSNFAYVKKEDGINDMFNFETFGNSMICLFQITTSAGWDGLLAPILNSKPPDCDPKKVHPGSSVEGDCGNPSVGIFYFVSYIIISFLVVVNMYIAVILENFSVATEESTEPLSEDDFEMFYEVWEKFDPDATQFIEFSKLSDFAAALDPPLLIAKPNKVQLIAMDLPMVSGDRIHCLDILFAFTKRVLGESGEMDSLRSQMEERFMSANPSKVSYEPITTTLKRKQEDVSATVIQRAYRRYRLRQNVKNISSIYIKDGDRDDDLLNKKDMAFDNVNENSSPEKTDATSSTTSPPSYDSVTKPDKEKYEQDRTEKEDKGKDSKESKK

With `CN(c1ccccc1)c1nc(N)nc(-c2noc(-c3ccc(NC4CCOC4)nc3)n2)n1` (centres unmarked) [Example 328, 2-N-methyl-6-(5-{6-[(oxolan-3-yl)amino]pyridin-3-yl}-1,2,4-oxadiazol-3-yl)-2-N-phenyl-1,3,5-triazine-2,4-diamine], the IC50 under setting [1] is 7960 nM. Turning to `CN(c1ccccc1)c1nc(N)nc(-c2noc(N3CCC(=CCC(F)(F)F)CC3)n2)n1` [Example 324, 2-N-Methyl-2-N-phenyl-6-{5-[4-(3,3,3-trifluoropropylidene)piperidin-1-yl]-1,2,4-oxadiazol-3-yl}-1,3,5-triazine-2,4-diamine], under setting [1], the IC50 came out at 2360 nM. Turning to `CN(c1ccccc1)c1nc(N)nc(-c2noc(-c3ccc(F)cc3)n2)n1` [Example 122, 6-[5-(4-Fluoro-phenyl)-[1,2,4]oxadiazol-3-yl]-N-methyl-N-phenyl-[1,3,5]triazine-2,4-diamine], the IC50 under setting [2] is 644 nM. `COc1ccccc1-c1nc(-c2nc(N)nc(N(C)c3cccc(F)c3)n2)no1` [Example 98, N-(3-Fluoro-phenyl)-6-[5-(2-methoxy-phenyl)-[1,2,4]oxadiazol-3-yl]-N-methyl-[1,3,5]triazine-2,4-diamine]: the IC50 under setting [2] was 318 nM.

`Nc1nc(Nc2ccccc2)nc(-c2noc(-c3ccc(OCCC(F)(F)F)nc3)n2)n1` [Example 363, 2-N-phenyl-6-{5-[6-(3,3,3-trifluoropropoxy)pyridin-3-yl]-1,2,4-oxadiazol-3-yl}-1,3,5-triazine-2,4-diamine]: under setting [1], the IC50 turned out to be 7 nM. For the compound `CN(c1ccccc1)c1nc(N)nc(-c2noc(-c3ncccc3Cl)n2)n1` [Example 273, 6-[5-(3-chloropyridin-2-yl)-1,2,4-oxadiazol-3-yl]-2-N-methyl-2-N-phenyl-1,3,5-triazine-2,4-diamine], the IC50 under setting [1] was 253 nM. Take `CC(=O)N1CC(c2nc(-c3nc(N)nc(N(C)c4ccccc4)n3)no2)C1` [Example 384, 1-[3-(3-{4-Amino-6-[methyl(phenyl)amino]-1,3,5-triazin-2-yl}-1,2,4-oxadiazol-5-yl)azetidin-1-yl]ethan-1-one]: under setting [1], the IC50 is over 8590 nM. As for `CN(c1ccccc1)c1nc(N)nc(-c2noc(-c3ccc(CO)nc3)n2)n1` [Example 295, [5-(3-{4-Amino-6-[methyl(phenyl)amino]-1,3,5-triazin-2-yl}-1,2,4-oxadiazol-5-yl)pyridin-2-yl]methanol], under setting [1], the IC50 is 5190 nM. Same read-out and setting: with `CN(c1ccccc1)c1nc(N)nc(-c2noc(-c3ccc(SCC(F)(F)F)nc3)n2)n1` [Example 318, 2-N-methyl-2-N-phenyl-6-(5-{6-[(2,2,2-trifluoroethyl)sulfanyl]pyridin-3-yl}-1,2,4-oxadiazol-3-yl)-1,3,5-triazine-2,4-diamine] the figure was 1890 nM; with `CN(c1ccccc1)c1nc(N)nc(-c2noc(C(=O)N3C[C@@H]4[C@@H](COc5ccccc5)[C@@H]4C3)n2)n1` [Example 406, 2-N-methyl-6-(5-{[-6-(phenoxymethyl)-3-azabicyclo[3.1.0]hexan-3-yl]carbonyl}-1,2,4-oxadiazol-3-yl)-2-N-phenyl-1,3,5-triazine-2,4-diamine], 624 nM.

With `CN(c1ccccc1)c1nc(N)nc(-c2noc(C3CCN(S(=O)(=O)CC(F)(F)F)C3)n2)n1` (centres unmarked) [Example 202, 2-N-methyl-2-N-phenyl-6-(5-{1-[(2,2,2-trifluoroethane)sulfonyl]pyrrolidin-3-yl}-1,2,4-oxadiazol-3-yl)-1,3,5-triazine-2,4-diamine], the IC50 under setting [1] was found to be 1790 nM. On the same count and under the same terms, with `CN(c1ccccc1)c1nc(N)nc(-c2noc(-c3ccc(C(=O)NCC(F)(F)F)nc3)n2)n1` [Example 280, 5-(3-{4-Amino-6-[methyl(phenyl)amino]-1,3,5-triazin-2-yl}-1,2,4-oxadiazol-5-yl)-N-(2,2,2-trifluoroethyl)pyridine-2-carboxamide] the figure was 513 nM; with `CN(c1ccccc1)c1nc(N)nc(-c2noc(N3CCN(C(=O)C(F)(F)F)CC3)n2)n1` [Example 347, 1-[4-(3-{4-amino-6-[methyl(phenyl)amino]-1,3,5-triazin-2-yl}-1,2,4-oxadiazol-5-yl)piperazin-1-yl]-2,2,2-trifluoroethan-1-one], 5810 nM. For the compound `CN(c1ccccc1)c1nc(N)nc(-c2noc(C3CN(S(=O)(=O)CC(F)(F)F)C3)n2)n1` [Example 310, 2-N-methyl-2-N-phenyl-6-(5-{1-[(2,2,2-trifluoroethane)sulfonyl]azetidin-3-yl}-1,2,4-oxadiazol-3-yl)-1,3,5-triazine-2,4-diamine], under setting [1], the IC50 amounted to 968 nM.

For the compound `CC(C)Oc1ccc(-c2nc(-c3nc(N)nc(N(C)c4ccccc4)n3)no2)cn1` [Example 149, 2-N-methyl-2-N-phenyl-6-{5-[6-(propan-2-yloxy)pyridin-3-yl]-1,2,4-oxadiazol-3-yl}-1,3,5-triazine-2,4-diamine], under setting [2], the IC50 is 142 nM. As for `CCS(=O)(=O)N1CC(c2nc(-c3nc(N)nc(N(C)c4ccccc4)n3)no2)C1` [Example 309, 6-{5-[1-(ethanesulfonyl)azetidin-3-yl]-1,2,4-oxadiazol-3-yl}-2-N-methyl-2-N-phenyl-1,3,5-triazine-2,4-diamine], under setting [1], the IC50 was determined as 1730 nM. On the same count and under the same terms, for `CN(c1ccccc1)c1nc(N)nc(-c2noc(N3CCC(O)(c4ccccc4)CC3)n2)n1` [Example 355, 1-(3-{4-amino-6-[methyl(phenyl)amino]-1,3,5-triazin-2-yl}-1,2,4-oxadiazol-5-yl)-4-phenylpiperidin-4-ol] the value was 2620 nM. For `CCS(=O)(=O)N1CCC(c2nc(-c3nc(N)nc(N(C)c4ccccc4)n3)no2)CC1` [Example 170, 6-{5-[1-(ethanesulfonyl)piperidin-4-yl]-1,2,4-oxadiazol-3-yl}-2-N-methyl-2-N-phenyl-1,3,5-triazine-2,4-diamine], the IC50 under setting [2] turned out to be 1880 nM.

For `CN(c1ccccc1)c1nc(N)nc(-c2noc(C(=O)NCc3ccc(OCC(F)(F)F)nc3)n2)n1` [Example 259, 3-{4-amino-6-[methyl(phenyl)amino]-1,3,5-triazin-2-yl}-N-{[6-(2,2,2-trifluoroethoxy)pyridin-3-yl]methyl}-1,2,4-oxadiazole-5-carboxamide], the IC50 under setting [1] came to 422 nM.

`Nc1nc(Nc2ccccc2)nc(-c2noc(C(=O)N3Cc4ccccc4C3)n2)n1` [Example 230, 6-{5-[(2,3-dihydro-1H-isoindol-2-yl)carbonyl]-1,2,4-oxadiazol-3-yl}-2-N-phenyl-1,3,5-triazine-2,4-diamine]: the IC50 under setting [1] came to 9250 nM. `COc1ccsc1-c1nc(-c2nc(N)nc(N(C)c3ccccc3)n2)no1` [Example 74, 6-[5-(3-Methoxy-thiophen-2-yl)-[1,2,4]oxadiazol-3-yl]-N-methyl-N-phenyl-[1,3,5]triazine-2,4-diamine]: the IC50 under setting [2] came to 1410 nM. In the case of `CN(c1ccccc1)c1nc(N)nc(-c2noc([C@@H]3CCCN3C(=O)CC3CC3)n2)n1` [Example 450, 1-[(2S)-2-(3-{4-amino-6-[methyl(phenyl)amino]-1,3,5-triazin-2-yl}-1,2,4-oxadiazol-5-yl)pyrrolidin-1-yl]-2-cyclopropylethan-1-one], under setting [1], the IC50 was 9530 nM. The same measure, in the same setting: for `CC(OCC(F)(F)F)c1ccc(-c2nc(-c3nc(N)nc(N(C)c4ccccc4)n3)no2)cn1` (centres unmarked) [Example 209, 2-N-methyl-2-N-phenyl-6-(5-{6-[1-(2,2,2-trifluoroethoxy)ethyl]pyridin-3-yl}-1,2,4-oxadiazol-3-yl)-1,3,5-triazine-2,4-diamine] the value was 74 nM.
